# Patent US10881656B2, “HIF inhibitors and use thereof” (The General Hospital Corporation, priority 2008, dated 2021)
# What was measured:
# [1] = target: T1, IRP1 binding to HIF-2a IRE (Homo sapiens, UniProt P21399); experiment: Electrophoretic mobility shift assay, HIF-2a IRE probe; conditions: for binding of IRP1 to HIF-2a IRE probe: lysates of treated 786-O cells, EMSA
# T1 sequence (P21399 1-889): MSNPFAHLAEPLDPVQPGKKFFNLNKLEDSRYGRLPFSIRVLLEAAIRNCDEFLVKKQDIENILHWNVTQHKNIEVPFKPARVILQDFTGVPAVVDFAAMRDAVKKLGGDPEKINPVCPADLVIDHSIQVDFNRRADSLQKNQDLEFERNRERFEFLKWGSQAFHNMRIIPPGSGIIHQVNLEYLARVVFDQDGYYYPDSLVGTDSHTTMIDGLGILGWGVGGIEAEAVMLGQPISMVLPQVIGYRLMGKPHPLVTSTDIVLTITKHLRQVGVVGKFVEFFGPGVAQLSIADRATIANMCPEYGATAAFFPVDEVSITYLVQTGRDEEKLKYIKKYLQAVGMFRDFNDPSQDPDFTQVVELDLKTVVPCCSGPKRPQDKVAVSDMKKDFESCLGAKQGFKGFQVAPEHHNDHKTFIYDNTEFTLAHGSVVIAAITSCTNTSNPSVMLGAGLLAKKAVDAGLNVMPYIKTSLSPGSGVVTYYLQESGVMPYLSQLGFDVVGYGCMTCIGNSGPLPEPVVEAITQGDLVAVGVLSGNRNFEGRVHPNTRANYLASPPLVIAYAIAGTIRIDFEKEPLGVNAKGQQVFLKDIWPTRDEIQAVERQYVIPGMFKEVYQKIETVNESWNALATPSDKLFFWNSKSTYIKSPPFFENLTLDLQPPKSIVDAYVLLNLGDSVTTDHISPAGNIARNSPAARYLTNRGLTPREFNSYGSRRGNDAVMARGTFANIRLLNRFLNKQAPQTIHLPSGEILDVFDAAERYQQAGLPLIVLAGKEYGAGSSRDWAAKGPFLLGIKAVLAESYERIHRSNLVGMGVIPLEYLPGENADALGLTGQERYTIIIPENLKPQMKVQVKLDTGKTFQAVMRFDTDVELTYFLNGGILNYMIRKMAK
# Experimental: EMSAs were performed as described previously (Fillebeen et al., 2003). Briefly, 50 μg lysate from 786-O cells treated with medium only, DMSO, or compounds were incubated with 25,000 cpm wild-type or mutant radiolabeled HIF-2a IRE probe for 20 minutes at room temperature before loading onto non-denaturing acrylamide gels. Supershifts were performed identically, save that 0.2 μg control, IRP1 or IRP2 antibodies were also added. Total protein content was estimated by Bradford Assay (BioRad, 500-0006), and even loading for all experiments was confirmed by Western blot for B-Actin.
# The inventors next tested the effect of hypoxia on the binding of IRP1 to the HIF-2a wild-type IRE. […] This is due to decreased mRNA binding, as western blots confirm that neither compound application nor hypoxia affects IRP1 protein expression. The involvement of IRP1 was further confirmed with super-shifting experiments with IRP1 antibody (FIG. 7C). No supershifted bands were observed using IRP2 antibody.
# Inventors discovered that compound 76 increased the residual amount of IRP1 bound to the HIF-2a IRE in hypoxia, although not to the same extent as that observed in normoxic cells. […] Lastly, to further investigate the involvement of IRP2 in HIF-2a IRE, the inventors compared side by side IRP2 binding to HIF-2a and Ferritin-L IRE in 786-O cells, in conditions of normoxia or hypoxia and after treatment with compound 76 or DFO (FIG. 7E). While IRP2 binding was clearly detected on Ferritin IRE, the inventors were not able to detect measurable IRP2 binding on HIF-2a IRE.
# To examine this latter possibility the inventors performed an electophoretic mobility shift assay (EMSA) using a radiolabeled wild type or mutant IRE probe to determine if IRP1 binding is increased (FIG. 18A). […] This shifted band can be supershifted with IRP1 but not IRP2 antibodies (data not shown). To further examine the ability of PGJ2 to enhance IRP1 activity under conditions of normoxia and hypoxia the inventors tested its effect at various concentrations of ambient oxygen, corresponding to physiologic or extreme conditions of tissue oxygenation.
# [2] = system: HIF and VHL target genes; experiment: Gene expression profiling and gene set enrichment analysis (GSEA) of compound treated 786-O cells; type: cell-based, human; conditions: for regulation of HIF target genes: 786-O cells at experimentally determined IC50 concentrations; for NES, gene set PRC3, VHL null (markers of PRC3 cells compared to WT8 cells) / NES, gene set Schofield, HIF (validated HIF-regulated genes) / NES, gene set Staller, VHL WT (markers of VHL WT cells compared to VHL null cells) / NES, gene set Staller, VHL null (markers of VHL null cells compared to VHL WT cells) / NES, gene set WT8, VHL WT (markers of WT8 cells compared to PRC3 cells): 786-O cells, GSEA normalized enrichment score
# Experimental: RNA from compound treated 786-O cells was isolated as described for qRT-PCR experiments. Labeled cRNA was prepared and hybridized to Affymetrix U133 Plus 2.0 microarrays according to the manufacturer's protocols. Scans were processed using Affymetrix MASS software and median scaled. Gene expression values less than a minimum threshold of 20 or a maximum threshold of 16000 were set to 20 and 16000, respectively. Genes with minimal variation across the dataset were discarded (maximum/minimum<3 or maximum−minimum<100). Class neighbors were identified with GenePattern software using the signal to noise metric (Golub et al., 1999). Hierarchical clustering was performed using dCHIP software. Gene set enrichment analysis was performed as described (Mootha et al., 2003) and significance was determined by permutation of the gene labels. Gene expression signatures were analyzed using the Connectivity Map webtool (build 01). Full details of the Connectivity Map dataset and analytics are provided elsewhere (Lamb et al., 2006). For PGJ2 expression analysis, raw gene-expression data have GEO series accession number GSE13818 and compound signatures from which non-HG-U133A probe sets were removed (see Table 6) were used to query the Connectivity Map (build 02).
# Total RNA was extracted from stable 786-O derived VHL-reconstituted (WT8), HIF-2a knock down (pTR) and their respective vector only control (PRC3 and pTV) cells and labeled cRNA was hybridized to oligonucleotide arrays. […] Compound-treated parental 786-O cells were subjected to the same analysis. […] The gene set enrichment analysis (GSEA) algorithm was used to investigate whether the compounds affected the expression of genes identified as VHL and HIF targets in other cell types (Mootha et al., 2003).
# [3] = system: HUVEC; experiment: HUVEC proliferation assay; type: cell-based, human; conditions: conditioned supernatant from compound-treated 786-O cells
# Experimental: HUVEC cells were plated in a 96 well plate in HUVEC minimal medium (Chembrex, EBM-2). 24 hours later, medium was replaced with a 1:4 mix of tissue culture medium that had been conditioned from compound or DMSO-only treated 786-O cells and HUVEC minimal medium. HUVEC proliferation was quantified by a colorimetric proliferation assay (WST-1, Roche, Germany).
# Conditioned tissue culture medium from compound-treated 786-O cells was tested for its ability to induce human umbilical vein endothelial cell (HUVEC) proliferation.
# [4] = target: IRP1 (Homo sapiens, UniProt P21399); experiment: HIF-2a activity (EGLN3 qRT-PCR) in IRP knock down lines; conditions: 786-O IRP knock down lines
SMILES,binding of IRP1 to HIF-2a IRE probe [1],regulation of HIF target genes [2],"NES, gene set PRC3, VHL null (markers of PRC3 cells compared to WT8 cells) [2]","NES, gene set Schofield, HIF (validated HIF-regulated genes) [2]","NES, gene set Staller, VHL WT (markers of VHL WT cells compared to VHL null cells) [2]","NES, gene set Staller, VHL null (markers of VHL null cells compared to VHL WT cells) [2]","NES, gene set WT8, VHL WT (markers of WT8 cells compared to PRC3 cells) [2]",angiogenic activity of renal carcinoma cell supernatant (HUVEC proliferation) [3],"binding of IRP1 to wild-type HIF-2a probe in hypoxia ([1]; 786-O cells, 24 hours hypoxia)",effect on HIF-2a activity when IRP1 is knocked down [4]
"CCCCC/C=C/C=C1/C(=O)C=C[C@@H]1C/C=C\CCCC(=O)O [PGJ2, 15-deoxy-Δ^12,14-prostaglandin J2]",increased the specific IRE binding activity of cell lysates under conditions of both normoxia and hypoxia,–,–,–,–,–,–,–,–,–
"C/C(=C\c1ccccc1)C(=O)CCN(C)C.Cl [Compound 40, 5-(dimethylamino)-2-methyl-1-phenyl-1-penten-3-one hydrochloride]",enhance binding of IRP1 to the HIF-2a IRE,coordinately downregulate HIF target genes,NES: −3.50,NES: −1.65,NES: −1.75,NES: −2.48,NES: −1.86,decrease the angiogenic activity of renal carcinoma cell supernatant,–,–
"COc1ccc(O)c(/C=C/C(=O)c2c(O)cc(C)oc2=O)c1 [Compound 41, 4-hydroxy-3-[3-(2-hydroxy-5-meoxyphenyl)acryloyl]-6-methyl-2H-pyran-2-one]",enhance binding of IRP1 to the HIF-2a IRE,coordinately downregulate HIF target genes,NES*: −2.98,NES: −1.62,NES: 1.62,NES: −2.42,NES: 1.58,decrease the angiogenic activity of renal carcinoma cell supernatant,–,–
"COC(=O)c1sccc1N/N=C(/C#N)S(C)(=O)=O [Compound 76, methyl 3-{2-[cyano(methylsulfonyl)methylene] hydrazino}thiophene-2-carboxylate]",enhance binding of IRP1 to the HIF-2a IRE,coordinately downregulate HIF target genes,NES: −3.15,NES: −1.78,NES: 1.53,NES: −2.45,NES: 1.88,decrease the angiogenic activity of renal carcinoma cell supernatant,enhances binding of IRP1 to wild-type HIF-2a probe in hypoxia,inhibition of IRP1 is sufficient to block effect of compounds on HIF-2a activity
"CC1(C)CC(=O)C=C(Sc2ccc(C#N)cc2[N+](=O)[O-])S1 [Compound 77, 4-[(2,2-dimethyl-4-oxo-3,4-dihydro-2H-thiin-6-yl)thio]-3-nitrobenzonitrile]",enhance binding of IRP1 to the HIF-2a IRE,coordinately downregulate HIF target genes,NES: −3.15,NES: −1.78,NES: 1.53,NES: −2.45,NES: 1.88,decrease the angiogenic activity of renal carcinoma cell supernatant,–,inhibition of IRP1 is sufficient to block effect of compounds on HIF-2a activity
